Source: US20060253078A1, “Method of treating skin disorders with stratum corneum piercing device” (priority 2005, published 2006)

Assay: In vitro electrode-salicylic acid compatibility (color change of test solution)
Format: physicochemical
Settings: for Solution color change: 1.5% salicylic acid in 50% ethanol/50% water, cathode Platinum
Method: The following experiment was conducted to determine the compatibility of electrodes with salicylic acid. A pair of test electrodes was immersed in 5 ml of 1.5% salicylic acid solution (solvent 50% ethanol/50% water). A pre-determined voltage was applied to the electrodes (by connecting the electrodes to a battery or batteries) for certain length of time as indicated in Table 3. Observations were made on color change of the test solution.

- Solution color change (anode Platinum, 3 V, 10 min): Colorless → yellow
- Solution color change (anode Platinum, 9 V, 10 min): Colorless → brown
- Solution color change (anode Zinc, 1.5 V, 10 min): No color change
- Solution color change (anode Zinc, 3 V, 10 min): No color change
- Solution color change (anode Zinc, 9 V, 30 min): No color change
- Discoloration of the solution (compatibility with salicylic acid) (platinum anode): resulted in discoloration
- Discoloration of the solution (compatibility with salicylic acid) (zinc anode, during passage of electric current): no discoloration
SMILES: O=C(O)c1ccccc1O [salicylic acid]
